Values of other authors in patent US20240000789A1, “THERAPEUTIC COMBINATIONS COMPRISING A CRAF INHIBITOR” (NOVARTIS AG, priority 2020, published 2024).
Like-named read-outs stand apart in the source and are kept apart here.

System: advanced NRAS-mutant melanoma
Settings: cited from earlier work; for ORR (overall response rate): NEMO phase 3, NRAS-mutant melanoma patients

Structure (SMILES)	ORR (overall response rate)	ORR (overall response rate) (listed as binimetinib)	DOR (NEMO phase 3)	PFS (NEMO phase 3)	discontinuation rate as a result of adverse events suspected to be related to study drug (NEMO phase 3)	mOS (NEMO phase 3)
Cn1cnc2c(F)c(Nc3ccc(Br)cc3F)c(C(=O)NOCCO)cc21 [Binimetinib]	15%	15%	6.9 months	2.8 months	20%	11 months
CN(C)/N=N/c1[nH]cnc1C(N)=O [Dacarbazine]	–	–	–	–	5%	–
